For 1 compound, Kd results are on record in patent US5318994A, “N-[2-(7-lower-alkoxynaphth-1-yl)ethyl]benzamides” (Adir et Compagnie, priority 1990, dated 1994).

The assay addresses melatonin receptors. The experiment in a line: Test of binding to melatonin receptors. Here is the method:
Binding of compounds of the invention to melatonin receptors was carried out according to conventional techniques.

On to `COc1ccc2[nH]cc(CCNC(C)=O)c2c1` [melatonin], for which the affinity, expressed as Kd, was 0.063 nM. This lies in the picomolar range.

For orientation: Kd means the equilibrium constant for the complex coming apart. A higher Kd goes with lower affinity.
